Assay results taken from patent US20130017197A1, “STABILIZED ANTIBODY PREPARATIONS AND USES THEREOF” (UNIVERSITE DE GENEVE, priority 2010, published 2013).

Legend:
Type in all cases: physicochemical
[1] = test system: Avastin® (bevacizumab); assay: Effect of AMP on the unmodified commercial bevacizumab formulation (Avastin®): monomers by AFFF-MALS; settings: 40° C.; for stabilization of the antibody (increase in the amount of monomers) versus Avastin® alone: p<0.05
Protocol: (§1) All samples were stored at a temperature of 40° C. during 28 days. Samples were analyzed directly after preparation (t0) and after 7, 14 and 28 days. The aggregation state of the antibodies was measured by multi-angle light scattering (MALS) after separation by asymmetrical flow field-flow fractionation (AFFF). […] Data were collected and analyzed with Astra software (Wyatt Technology Europe GmbH, Dernbach, Germany). The aggregation state was expressed as the percentage of monomers versus time.
All samples are stored at a temperature of 40° C. for 28 days and stability is measured as described in Example 1 and compared to a sample of Avastin® alone stored under the same conditions.

[2] = test system: bevacizumab; assay: Stability of dialysed, pre-stressed bevacizumab alone and with AMP: percentage of monomers by AFFF-MALS; settings: for percentage of monomers: pH 7.0
Protocol: as §1, with “A 50 mM phosphate buffer pH 7.0 was used. The buffer choice was based on” for “All samples were stored at”, “pH range and buffer capacity that is tolerated physiologically and that is acceptable for the stability” for “temperature”, “antibodies. […]” for “40° C. during 28 days.”

[3] = test system: Avastin® (bevacizumab); assay: Stability of pre-stressed Avastin® dialysed into PBS pH 7.0, with ATP or GMP: monomers by AFFF-MALS; settings: for stabilization of Avastin® across molar ratios: ratios 1:1, 1:10, 1:100, 40° C.
Protocol: All samples were stored at a temperature of 40° C. during 28 days. […] The aggregation state of the antibodies was measured by multi-angle light scattering (MALS) after separation by asymmetrical flow field-flow fractionation (AFFF). […] Data were collected and analyzed with Astra software (Wyatt Technology Europe GmbH, Dernbach, Germany). The aggregation state was expressed as the percentage of monomers versus time.
After pre-stressing, Avastin® samples are combined with either ATP or GMP at three Avastin®: compound of formula (I) molar ratios (1:1, 1:10 and 1:100). All samples are stored at a temperature of 40° C. for 28 days and stability is measured as described in Example 1 and compared to a sample of Avastin® alone stored under the same conditions. For GMP, a dilution of GMP was made in PBS pH 7.0 and pH was re-adjusted to pH 7.0 before the combination with Avastin® to prevent the risk of higher order aggregates caused by the addition of NaOH directly to the antibody formulation.

[4] = molar ratio 1:1, 1 day at 40° C. (t1)
[5] = molar ratio 1:10, 1 day at 40° C. (t1)
[6] = molar ratio 1:100, 1 day at 40° C. (t1)

Compound	stabilization compared to the other molar ratios ([1]; Avastin®:AMP 1:10 versus 1:1 and 1:100)	stabilization of the antibody (increase in the amount of monomers) versus Avastin® alone ([1]; Avastin®:AMP molar ratio 1:10, t1, t14 and t28)	stabilization of the antibody (increase in the amount of monomers) versus Avastin® alone ([1]; Avastin®:AMP molar ratio 1:100, only t14 and t28)	increase in the proportion of the antibody present in the monomer form ([2]; AMP added to a liquid formulation containing already formed antibody aggregates, general statement)	percentage of monomers ([2]; bevacizumab 25 mg/ml with AMP (read as molar ratio 1:153), 14 days at 40° C., n=3)	percentage of monomers ([2]; bevacizumab:AMP molar ratio 1:1.53, 14 days at 40° C.)	percentage of monomers ([2]; bevacizumab:AMP molar ratio 1:1.53, 28 days at 40° C., n=3)	percentage of monomers ([2]; bevacizumab:AMP molar ratio 1:15.3, 14 days at 40° C.)	percentage of monomers ([2]; bevacizumab:AMP molar ratio 1:15.3, 28 days at 40° C., n=3)	percentage of monomers ([2]; bevacizumab:AMP molar ratio 1:153, 28 days at 40° C., n=3)	effect on antibody stability versus Avastin® alone [3, 4]	effect on antibody stability versus Avastin® alone ([3]; molar ratio 1:1, 28 days at 40° C. (t28))	effect on antibody stability versus Avastin® alone [3, 5]	effect on antibody stability versus Avastin® alone ([3]; molar ratio 1:10, 28 days at 40° C. (t28))	effect on antibody stability versus Avastin® alone [3, 6]	effect on antibody stability versus Avastin® alone ([3]; molar ratio 1:100, 28 days at 40° C. (t28))	higher order aggregates ([3]; molar ratio 1:100, 28 days at 40° C., probably due to pH adjustment)	stabilization of Avastin® across molar ratios ([3]; up to 14 days)	stabilizing properties in comparison of excipients ([3]; after 28 days of storage at 40° C., ratio not specified)	stabilization of Avastin® across molar ratios ([3]; all timepoints (1:100 most effective, then 1:10, then 1:1))
Nc1ncnc2c1ncn2[C@@H]1O[C@H](COP(=O)(O)O)[C@@H](O)[C@H]1O [AMP, adenosine 5′-monophosphate]	better stabilization	significant stabilization	significant stabilization	10% to 30	higher than 94%	higher than 80%	higher than 76%	higher than 80%	higher than 76%	around 90%										
Nc1ncnc2c1ncn2[C@@H]1O[C@H](COP(=O)(O)OP(=O)(O)OP(=O)(O)O)[C@@H](O)[C@H]1O [ATP, adenosine 5′-triphosphate]											stabilizing effect	no significant difference	stabilizing effect	no significant difference	stabilizing effect	significant stabilization	small percentage of higher order aggregates	concentration dependent stabilization		
Nc1nc2c(ncn2[C@@H]2O[C@H](COP(=O)(O)O)[C@@H](O)[C@H]2O)c(=O)[nH]1 [GMP, guanosine 5′-monophosphate]											destabilizing		destabilizing		ability to stabilize the antibody				most distinct stabilizing properties	concentration dependent stabilization
